From US10336762B2 (priority 2017, dated 2019)

Key:
IRAK4 enzyme = IRAK4 enzyme (Homo sapiens (Human), UniProt Q9NWZ3); test: biochemical; assay type: biochemical; conditions: IRAK4 enzyme, TR-FRET (HTRF), 500 μM ATP
TNFα = test: cells; assay type: cell-based, human; conditions: Homo sapiens, Monocyte, LPS-stimulated human monocytes, TNFα content; read-out: EC50 TNF

Chain of IRAK4 enzyme (Q9NWZ3 whole entry): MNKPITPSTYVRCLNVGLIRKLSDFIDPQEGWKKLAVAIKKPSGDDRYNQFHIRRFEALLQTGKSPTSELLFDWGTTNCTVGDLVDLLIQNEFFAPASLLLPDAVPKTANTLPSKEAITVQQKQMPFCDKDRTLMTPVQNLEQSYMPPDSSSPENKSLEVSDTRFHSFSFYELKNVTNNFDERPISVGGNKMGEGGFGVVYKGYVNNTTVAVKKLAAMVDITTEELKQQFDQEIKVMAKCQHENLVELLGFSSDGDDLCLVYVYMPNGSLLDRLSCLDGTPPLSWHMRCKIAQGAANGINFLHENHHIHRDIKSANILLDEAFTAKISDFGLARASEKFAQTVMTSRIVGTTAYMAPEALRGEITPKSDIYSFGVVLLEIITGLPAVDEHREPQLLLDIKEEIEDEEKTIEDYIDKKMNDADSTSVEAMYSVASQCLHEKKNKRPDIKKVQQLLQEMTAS

Row | SMILES | IC50 (IRAK4 enzyme) [nM] | EC50 (TNFα) [nM]
1 | CC(C)(O)[C@H](F)CNC(=O)c1cnc(-c2ccc3cc(C#N)cnn23)cc1Nc1ccn2ccnc2c1 [Example 570, (R)-6-(3-cyanopyrrolo[1,2-b]pyridazin-7-yl)-N-(2-fluoro-3-hydroxy-3-methyl-butyl)-4-(imidazo[1,2-a]pyridin-7-ylamino) nicotinamide] | < 1 | 80
2 | CC(C)(O)[C@H](F)CNC(=O)c1cnc(-c2ccc3cc(C#N)cnn23)cc1Nc1ccc2c(C#N)c[nH]c2c1 [Example 571, (R)-4-((3-cyano-1H-indol-6-yl)amino)-6-(3-cyano-pyrrolo[1,2-b]pyridazin-7-yl)-N-(2-fluoro-3-hydroxy-3-methylbutyl)nicotinamide] | < 1 | 12
3 | CC(C)(O)[C@H](F)CNC(=O)c1cnc(-c2ccc3cc(C#N)cnn23)cc1Nc1ccc2ncsc2c1 [Example 572, (R)-4-(benzo[d]thiazol-6-ylamino)-6-(3-cyano-pyrrolo[1,2-b]pyridazin-7-yl)-N-(2-fluoro-3-hydroxy-3-methylbutyl)nicotinamide] | < 1 | 66
4 | CC(C)(O)[C@H](F)CNC(=O)c1cnc(-c2ccc3cc(C#N)cnn23)cc1Nc1ccc2c(c1)NC(=O)C2 [Example 573, (R)-6-(3-cyanopyrrolo[1,2-b]pyridazin-7-yl)-N-(2-fluoro-3-hydroxy-3-methyl-butyl)-4-((2-oxoindolin-6-yl)amino)nicotinamide] | < 1 | 24
5 | CC(C)(O)[C@H](F)CNC(=O)c1cnc(-c2ccc3cc(C#N)cnn23)cc1Nc1ccc2cn[nH]c2c1 [Example 574, (R)-4-((1H-indazol-6-yl)amino)-6-(3-cyano-pyrrolo[1,2-b]pyridazin-7-yl)-N-(2-fluoro-3-hydroxy-3-methylbutyl) nicotinamide] | < 1 | 57
6 | CN(C)C(=O)c1ccc(Nc2cc(-c3ccc4cc(C#N)cnn34)ncc2C(=O)NC[C@@H](F)C(C)(C)O)cn1 [Example 575, (R)-5-((2-(3-cyano-pyrrolo[1,2-b]pyridazin-7-yl)-5-((2-fluoro-3-hydroxy-3-methylbutyl)carbamoyl)pyridin-4-yl)amino)-N,N-dimethyl-picolinamide] | 2 | 144
7 | CC(C)(O)[C@H](F)CNC(=O)c1cnc(-c2ccc3cc(C#N)cnn23)cc1Nc1ccc2[nH]ccc2c1 [Example 576, (R)-4-((1H-indol-5-yl)amino)-6-(3-cyano-pyrrolo[1,2-b]pyridazin-7-yl)-N-(2-fluoro-3-hydroxy-3-methylbutyl) nicotinamide] | < 1 | 21
8 | CC(C)(O)[C@H](F)CNC(=O)c1cnc(-c2ccc3cc(C#N)cnn23)cc1Nc1ccc2[nH]ncc2c1 [Example 577, (R)-4-((1H-indazol-5-yl)amino)-6-(3-cyano-pyrrolo[1,2-b]pyridazin-7-yl)-N-(2-fluoro-3-hydroxy-3-methylbutyl) nicotinamide] | < 1 | 30
9 | CC(C)(O)[C@H](F)CNC(=O)c1cnc(-c2ccc3cc(C#N)cnn23)cc1Nc1ccc2cc[nH]c2c1 [Example 578, (R)-4-((1H-indol-6-yl)amino)-6-(3-cyano-pyrrolo[1,2-b]pyridazin-7-yl)-N-(2-fluoro-3-hydroxy-3-methylbutyl) nicotinamide] | 2 | 14
10 | CNC(=O)c1ccc(Nc2cc(-c3ccc4cc(C#N)cnn34)ncc2C(=O)NC[C@@H](F)C(C)(C)O)cn1 [Example 579, (R)-5-((2-(3-cyano-pyrrolo[1,2-b]pyridazin-7-yl)-5-((2-fluoro-3-hydroxy-3-methylbutyl)carbamoyl)pyridin-4-yl)amino)-N-methylpicolinamide] | < 1 | 75
11 | CC(C)(O)[C@H](F)CNC(=O)c1cnc(-c2ccc3cc(C#N)cnn23)cc1Nc1ccc2nc[nH]c2c1 [Example 580, (R)-4-((1H-benzo[d]imidazol-6-yl)amino)-6-(3-cyanopyrrolo[1,2-b]pyridazin-7-yl)-N-(2-fluoro-3-hydroxy-3-methyl-butyl)nicotinamide] | < 1 | 69
12 | Cc1cc(Nc2cc(-c3ccc4cc(C#N)cnn34)ncc2C(=O)NC[C@@H](F)C(C)(C)O)ccc1C(N)=O [Example 581, (R)-4-((4-carbamoyl-3-methylphenyl)amino)-6-(3-cyanopyrrolo[1,2-b]pyridazin-7-yl)-N-(2-fluoro-3-hydroxy-3-methylbutyl)nicotinamide] | < 1 | 114
13 | Cc1cc(Nc2cc(-c3ccc4cc(C#N)cnn34)ncc2C(=O)NC[C@@H](F)C(C)(C)O)ncc1C(N)=O [Example 582, (R)-4-((5-carbamoyl-4-methylpyridin-2-yl)amino)-6-(3-cyanopyrrolo[1,2-b]pyridazin-7-yl)-N-(2-fluoro-3-hydroxy-3-methyl-butyl)nicotinamide] | 3 | 389
14 | Cc1cc(Nc2cc(-c3ccc4cc(C#N)cnn34)ncc2C(=O)NC[C@@H](F)C(C)(C)O)ccc1C#N [Example 583, (R)-4-((4-cyano-3-methylphenyl)amino)-6-(3-cyanopyrrolo[1,2-b]pyridazin-7-yl)-N-(2-fluoro-3-hydroxy-3-methylbutyl)nicotinamide] | 2 | 140
15 | CC(C)(O)[C@H](F)CNC(=O)c1cnc(-c2ccc3cc(C#N)cnn23)cc1Nc1ncc(F)cn1 [Example 584, (R)-6-(3-cyanopyrrolo[1,2-b]pyridazin-7-yl)-N-(2-fluoro-3-hydroxy-3-methylbutyl)-4-((5-fluoro-pyrimidin-2-yl)amino)nicotinamide] | 4 | 274
16 | Cc1cc(Nc2cc(-c3ccc4cc(C#N)cnn34)ncc2C(=O)NC[C@@H](F)C(C)(C)O)ncc1C#N [Example 585, (R)-4-((5-cyano-4-methyl-pyridin-2-yl)amino)-6-(3-cyanopyrrolo[1,2-b]pyridazin-7-yl)-N-(2-fluoro-3-hydroxy-3-methyl-butyl)nicotinamide] | 2 | 104
17 | CC(C)(O)[C@H](F)CNC(=O)c1cnc(-c2ccc3cc(C#N)cnn23)cc1Nc1ccc(Cl)cn1 [Example 586, (R)-4-((5-chloropyridin-2-yl)amino)-6-(3-cyano-pyrrolo[1,2-b]pyridazin-7-yl)-N-(2-fluoro-3-hydroxy-3-methylbutyl) nicotinamide] | 1 | 118
18 | CC(C)(O)[C@H](F)CNC(=O)c1cnc(-c2ccc3cc(C#N)cnn23)cc1Nc1ncccn1 [Example 587, (R)-6-(3-cyanopyrrolo[1,2-b]pyridazin-7-yl)-N-(2-fluoro-3-hydroxy-3-methyl-butyl)-4-(pyrimidin-2-ylamino)nicotinamide] | 3 | 150
19 | CC(C)(O)[C@H](F)CNC(=O)c1cnc(-c2ccc3cc(C#N)cnn23)cc1Nc1cccnn1 [Example 588, (R)-6-(3-cyanopyrrolo[1,2-b]pyridazin-7-yl)-N-(2-fluoro-3-hydroxy-3-methylbutyl)-4-(pyridazin-3-ylamino)nicotinamide] | 3 | 412
20 | CC(C)(O)[C@H](F)CNC(=O)c1cnc(-c2ccc3cc(C#N)cnn23)cc1Nc1ccccc1 [Example 589, (R)-6-(3-cyanopyrrolo[1,2-b]pyridazin-7-yl)-N-(2-fluoro-3-hydroxy-3-methylbutyl)-4-(phenylamino)nicotinamide] | < 1 | 95
21 | COc1ncc(Nc2cc(-c3ccc4cc(C#N)cnn34)ncc2C(=O)NC[C@@H](F)C(C)(C)O)cn1 [Example 590, (R)-6-(3-cyanopyrrolo[1,2-b]pyridazin-7-yl)-N-(2-fluoro-3-hydroxy-3-methylbutyl)-4-((2-methoxypyrimidin-5-yl)amino)nicotinamide] | < 1 | 38
22 | CC(C)(O)[C@H](F)CNC(=O)c1cnc(-c2ccc3cc(C#N)cnn23)cc1Nc1ccnc(F)c1 [Example 591, (R)-6-(3-cyanopyrrolo[1,2-b]pyridazin-7-yl)-N-(2-fluoro-3-hydroxy-3-methylbutyl)-4-((2-fluoro-pyridin-4-yl)amino) nicotinamide] | 2 | 180
23 | CC(C)(O)[C@H](F)CNC(=O)c1cnc(-c2ccc3cc(C#N)cnn23)cc1Nc1cncc(C(N)=O)c1 [Example 592, (R)-4-((5-carbamoyl-pyridin-3-yl)amino)-6-(3-cyanopyrrolo[1,2-b]pyridazin-7-yl)-N-(2-fluoro-3-hydroxy-3-methylbutyl) nicotinamide] | 1 | 222
24 | CC(C)(O)[C@H](F)CNC(=O)c1cnc(-c2ccc3cc(C#N)cnn23)cc1Nc1ccncc1 [Example 593, (R)-6-(3-cyano-pyrrolo[1,2-b]pyridazin-7-yl)-N-(2-fluoro-3-hydroxy-3-methylbutyl)-4-(pyridin-4-ylamino) nicotinamide] | 2 | 143
25 | COC(=O)c1cncc(Nc2cc(-c3ccc4cc(C#N)cnn34)ncc2C(=O)NC[C@@H](F)C(C)(C)O)c1 [Example 594, (R)-methyl 5-((2-(3-cyanopyrrolo[1,2-b]pyridazin-7-yl)-5-((2-fluoro-3-hydroxy-3-methylbutyl)carbamoyl)pyridin-4-yl)amino) nicotinate] | 2 | 316
26 | Cc1ncc(Nc2cc(-c3ccc4cc(C#N)cnn34)ncc2C(=O)NC[C@@H](F)C(C)(C)O)cn1 [Example 595, (R)-6-(3-cyano-pyrrolo[1,2-b]pyridazin-7-yl)-N-(2-fluoro-3-hydroxy-3-methylbutyl)-4-((2-methylpyrimidin-5-yl)amino)nicotinamide] | < 1 | 107
27 | CC(C)(O)[C@H](F)CNC(=O)c1cnc(-c2ccc3cc(C#N)cnn23)cc1Nc1cnc(C#N)nc1 [Example 596, (R)-4-((2-cyano-pyrimidin-5-yl)amino)-6-(3-cyanopyrrolo[1,2-b]pyridazin-7-yl)-N-(2-fluoro-3-hydroxy-3-methylbutyl) nicotinamide] | 3 | > 10000
